The record followed here is patent US20120077761A1, “COMPOSITIONS AND METHODS FOR THE PREVENTION AND TREATMENT OF CORONARY HEART DISEASES” (Generex Pharmaceuticals, Inc, priority 2009, published 2012).

The subject of assay [1] is human umbilical vein endothelial cells (HUVEC). The assay is described as follows: differentiation of human umbilical vein endothelial cells (HUVEC). The assay is classed as cell-based. Particulars: for differentiation of HUVEC, dose dependence: versus vehicle treated cells (proliferation, no differentiation). From the text: FIG. 2. illustrates a series of micrographs showing differentiation of vessel endothelial cells (HUVEC) induced by angioenhancin compounds of formula I and II. Panels a & b represent the vehicle treated cells showing proliferation but no sign of differentiation.

The subject of assay [2] is infarcted hearts. The assay is described as follows: myocardial infarction rat model (permanent LAD ligation), neovascularization in infarct zone. The assay is classed as in vivo, Sprague-Dawley rats. Particulars: vehicle-treated: mainly fibrosis. The method, then:
Myocardial infarction (MI) animal model was induced in male Sprague-Dawley rats (300-350 g) by permanent ligation of the left anterior descending (LAD) coronary artery. The experimental rats were anesthetized with intraperitoneal pentobarbital (50 mg/kg), intubated, and mechanically ventilated with room air. The angioenhancin compound of formula I or formula II (2 mg/kg), dissolved in water (0.5 ml), was orally administrated to MI rats (n=6) for one day post ligation, daily for two weeks with equivalent amount of water to the vehicle-treated rats (n=6). For sham-operated rats (n=5), thoracotomy was performed without ligation. Animals were sacrificed after final echocardiography measurements.
Evaluation of neovascularization in infarcted hearts. Echocardiography was recorded on day 7 and 14 post operations. The hearts of the sacrificed rats were removed and washed with PBS. For histological studies, the left ventricles of the experimental rats were removed and cut from apex-to-base in 3 transverse slices and embedded in paraffin. To quantify the density of capillaries in infarct zones, the vessels were counted and averaged in 6 randomly selected high power view fields (HPF, 40×) on each section. Blinded capillary counts were performed on 6 hearts per group by two investigators. The results were expressed as mean±SD capillaries per HPF.

For assay [3], the system named is VEGF, VEGFR, EGF and FGF. The experiment in a line: RT-PCR of angiogenesis-associated genes in treated heart tissues and endothelial cells. Format: in vivo.
Assay [4] deals with ischemic zone of myocardium. The assay is described as follows: subclinical chronic coronary heart disease (cCHD) rat model (partial LAD ligation), neovascularization in ischemic zone. Format: in vivo, Sprague-Dawley (SD) rats. Particulars: for vascular density in treated ischemic hearts versus vehicle-treated hearts (FIG. 4): 2 weeks post ligation; for chronic ischemic heart histology, 2 weeks post LAD partial ligation (FIG. 4): compared with vehicle-treated hearts (C1). The method, then:
(§1) The subclinical cCHD rat model was produced as described. Briefly, male Sprague-Dawley (SD) rats, weighing 150-200 g, were used. Following proper anesthesia, left thoracotomy was performed on the animals. The pericardium was opened and a probe or surgical suture thread (11-0) was placed onto the epicardium along the LAD. […] The experimental rats with ST segment constantly depressed above 0.1 mV were selected and randomly divided into two groups. […] The rats in vehicle-treated group (n=6) were treated with equivalent period and amount of H2O. For the sham operation group (n=6), left thoracotomy was performed and the pericardium was opened but with no LAD ligation.
Measurement of neovascularization in the ischemic zone. Left ventricles from the rats sacrificed on day 14 post-ligation were removed and sliced from apex to base in 3 transverse slices. The slices were fixed in formalin and embedded in paraffin. Vascular density was determined on the histology section samples by counting the number of vessels within the ischemic zone using a light microscope under a high power field (HPF) (40×). Eight random and non-overlapping HPFs within the ischemic field were used for counting all the vessels in each section. The number of vessels in each HPF was averaged and expressed as the number of vessels per HPF. Vascular counts were performed by two investigators in a blind fashion.
The capillary density in the ischemic zone of the angioenhancin treated myocardium was on average 12 capillaries (12±3.8) filled with blood cells per HPF, calculated from 8 randomly selected view fields on each of the 3 slides from 6 angioenhancin treated hearts on day 14.

The test system of assay [5] is ischemic hearts. The assay is described as follows: echocardiography assessment of heart function in cCHD rats. The assay is classed as in vivo, SD rats. Particulars: 5 mg/kg, echocardiography day 2, 7 and 14, progressively lowered in vehicle treated rats. The method, then:
as §1
Echocardiography Assessment of Heart Function. In all, 12 SD rats received baseline echocardiography before any experimental procedures. Echocardiography was recorded under controlled anesthesia using a Toshiba Aplio XG Echocardiography with PLT-1202S linear array transducer S10-MHz phased-array transducer. M-mode tracing and 2-dimensional (2D) echocardiography images were recorded from the parasternal long- and short-axis views. Short axis view was at the papillary muscles level. Left ventricular end-systolic and end-diastolic dimensions, as well as systolic and diastolic wall thickness, were measured from the M-mode tracings by using the leading-edge convention of the American Society of Echocardiography. For each M-mode measurement, at least three consecutive cardiac cycles were sampled. All rats in both groups received echocardiography measurements on day 2, 7 and 14 post ligation.

Assay [6] deals with human aorta endothelial cells (HAEC). The assay is described as follows: capillary-like tube formation of human aorta endothelial cells on fibrin matrix. Particulars: for Approx. No. of Tubes: HAEC on fibrin matrix, Ctrl 9; for Approx. No. of Tubes / capillary-like networks compared to vehicle-treated cells: 22 hours; for capillary-like networks compared to vehicle-treated cells: HAEC.
Method: Cells were incubated at 37° C. and equilibrated in 95% air-5% CO2. Fibrin matrices were prepared by polymerization of fibrinogen solution (5 mg fibrinogen/ml serum-free medium) using low concentrations of α-thrombin (2.5 U/ml). After polymerization, gels were soaked in culture medium containing 10% FBS for 2 h at 37° C. to inactivate the thrombin. HAEC were seeded on the surface of the three-dimensional matrix in 96-well plates in Ham's F-12 medium and cultured for 22 hours with different concentrations of angioenhancin compounds of formula I and formula II in a growth medium. Non-treated control was added with equivalent amount of growth medium. Images were captured and the angiogenic properties were determined by calculating the total number of tubes formed.

Take `O=C(OC1OC2COC(=O)c3cc(O)c(O)c(O)c3-c3c(cc(O)c(O)c3O)C(=O)OC2C2OC(=O)c3cc(O)c(O)c(O)c3-c3c(cc(O)c(O)c3O)C(=O)OC12)c1cc(O)c(O)c(O)c1` (centres unmarked) [Formula II, Potentillin]: the “differentiation of HUVEC (cell phenotype, FIG. 2)” value in assay [1] (10 μg/ml) was “refractive and elongated cells”; in assay [1] (20 μg/ml) it was “thin and elongated phenotype with the typical characteristic of differentiation of vessel endothelial cells”; in assay [1] (40 μg/ml), “thin, elongated and circled phenotype forming tube-like structures”. For the same molecule, the “differentiation of HUVEC, dose dependence” value in assay [1] is listed as “enhanced differentiation of HUVEC in a dose dependent manner”. Further, the “infarcted region histology, 2 weeks post LAD ligation (FIG. 4)” value in assay [2] is recorded as “many newly formed vessels filled with red blood cells observed”. The “expressions of angiogenesis-associated genes (VEGF, VEGFR, EGF and FGF), RT-PCR” value in assay [3] is “up-regulated”. Further, in assay [4], the “vascular density in treated ischemic hearts versus vehicle-treated hearts (FIG. 4)” value is “higher”. In addition, the “chronic ischemic heart histology, 2 weeks post LAD partial ligation (FIG. 4)” value in assay [4] was “more blood vessels”. Also, the “left ventricle ejection fraction (LVEF)” value in assay [5] is reported as “progressively restored”. For the same molecule, the “left ventricle fraction shortening (LVFS)” value in assay [5] was “progressively restored”. Besides, the figures for the “Approx. No. of Tubes” value in assay [6] (5 μg/ml), in assay [6] (10 μg/ml) and in assay [6] (20 μg/ml) were approximately 67, approximately 46 and approximately 45, respectively. Moreover, the “growth of capillary-like tubes versus non-treated control (FIG. 3)” value in assay [6] (HAEC passage 7, 22 hours, concentration not given) is reported as “enhanced growth of capillary-like tubes more than that in non-treated control, but less than that in angioenhancin-I treated”. The “capillary-like networks compared to vehicle-treated cells” value in assay [6] is on record as “formed more capillary-like networks”.
For the molecule pedunculagin [Formula I], the “differentiation of HUVEC (cell phenotype, FIG. 2)” value in assay [1] (20 μg/ml) was “enhanced differentiation showing thin and elongated cells”; in assay [1] (40 μg/ml), “thin and elongated phenotype forming tube-like structures”. Further, the “differentiation of HUVEC, dose dependence” value in assay [1] is given as “enhanced differentiation of HUVEC in a dose dependent manner”. Further, the “infarcted region histology, 2 weeks post LAD ligation (FIG. 4)” value in assay [2] was “Many newly formed collateral vessels filled with red blood cells were found”. In addition, the “expressions of angiogenesis-associated genes (VEGF, VEGFR, EGF and FGF), RT-PCR” value in assay [3] is on record as “up-regulated”. Further, in assay [4], the “vascular density in treated ischemic hearts versus vehicle-treated hearts (FIG. 4)” value is on record as “higher”. Moreover, the “chronic ischemic heart histology, 2 weeks post LAD partial ligation (FIG. 4)” value in assay [4] is recorded as “more blood vessels”. The “left ventricle ejection fraction (LVEF)” value in assay [5] is on record as “progressively restored”. The “left ventricle fraction shortening (LVFS)” value in assay [5] is given as “progressively restored”. For the same molecule, the entries for the “Approx. No. of Tubes” value in assay [6] (5 μg/ml), in assay [6] (10 μg/ml) and in assay [6] (20 μg/ml) were approximately 45, approximately 57 and approximately 68, respectively. Also, the “growth of capillary-like tube structures versus non-treated control (FIG. 3)” value in assay [6] (5 μg/ml, HAEC passage 7, 22 hours) is “enhanced growth of capillary-like tube structures much more than that in non-treated control”. Further, the “capillary-like networks compared to vehicle-treated cells” value in assay [6] is listed as “formed more capillary-like networks”.
